Data reported in patent US20160024083A1, “COMPOUNDS AND METHODS FOR TREATING CANCERS” (HEALTH RESEARCH, INC., priority 2013, published 2016).
pIC50: −log10 of the molar value. Where two headings read alike, the source gives them in different places.

Columns and labels:
Assay type in all cases: cell-based
PC3 = experiment: Inhibition of growth / toxicity in non-target PC3 cells; conditions: Homo sapiens, PC-3
Protocol: (§1) This example provides a table (below) of the compounds of the present disclosure and their activity towards four different cell lines (i.e., CWR22R, HeLa, PC3, and MDA-MB-231). The IC50 for inhibition of growth is divided into 4 categories: A<1 μM, B 1-5 μM, C 5-20 μM, D>20 μM.
(§2) All compounds were tested for toxicity using 4 cells lines, target cells—CWR22R and non-target cells, Hela, PC3 and MDA-MB-231 (FIGS. 1A-F).

MDA-MB-231 = experiment: Inhibition of growth / toxicity in non-target MDA-MB-231 cells
Protocol: as §1, §2

Hela = experiment: Inhibition of growth / toxicity in non-target Hela cells
Protocol: as §1, §2

CWR22R = experiment: cells
Protocol: FIG. 21. Toxicity of PLA1055 to CWR22R cells in vitro depending on time of incubation. PLA1055 was added to CWR22R in full range of concentrations for the periods of time shown on the right. After that drug containing media were changed for drug free and survival of cells was detected at 72 hours after start of treatment using Alamar Blue assay (Promega).
as §1, §2
LC50 data of in vitro 72 hours cytotoxicity assay are included in this table for comparison.
An in vitro experiment was run to detect the concentration of PLA1055 needed to kill all tumor cells in vitro (LC90) during different periods of time (30 minutes-72 hours, FIG. 21)).

[1] = Homo sapiens, 22Rv1, CWR22R, read-out: IC50 for inhibition of growth
[2] = CWR22R, read-out: IC50 for inhibition of growth

SMILES	pIC50 (PC3)	pIC50 (MDA-MB-231; Homo sapiens)	pIC50 (Hela; Homo sapiens, HeLa)	pIC50 (CWR22R; Homo sapiens, 22Rv1, read-out: IC50 for inhibition of growth, CWR22R)	pIC50 (CWR22R; [1])	pIC50 (CWR22R; [2])	pIC50 (MDA-MB-231)	pIC50 (Hela; Hela)
CCCn1c2ccccc2c2cc(Br)ccc21 [Compound 1-1, 3-Bromo-9-propyl-9H-carbazole]	< 4.70	< 4.70	< 4.70	5.30 to 6.00				
CC(=O)c1ccc2c(c1)c1ccccc1n2CCCF [Compound 1-2]	< 4.70	< 4.70	< 4.70		> 6.00			
CCCn1c2ccccc2c2cc(-c3cccs3)ccc21 [Compound 2-1, 9-Propyl-3-thiophen-2-yl-9H-carbazole]	< 4.70	< 4.70	< 4.70		> 6.00			
CCCn1c2ccccc2c2cc(-c3ccc(C)s3)ccc21 [Compound 2-2]	< 4.70	< 4.70	< 4.70		< 4.70			
CCCn1c2ccccc2c2cc(-c3cnoc3)ccc21 [Compound 2-5]	< 4.70	< 4.70	< 4.70		> 6.00			
CCn1c2ccccc2c2cc(-c3cccs3)ccc21 [Compound 2-6]		< 4.70	< 4.70		5.30 to 6.00			
CCCn1c2ccccc2c2cc(-c3ncco3)ccc21 [Compound 4-1, 3-Oxazol-2-yl-9-propyl-9H-carbazole]	< 4.70	< 4.70	< 4.70		5.30 to 6.00			
CCCn1c2ccccc2c2cc(-c3nccs3)ccc21 [Compound 4-2]	< 4.70	< 4.70	< 4.70		< 4.70			
CCn1c2ccccc2c2cc(-c3ccccn3)ccc21 [Compound 4-4]	< 4.70	< 4.70	< 4.70		4.70 to 5.30			
CCCn1c2ccccc2c2cc(-c3ccccn3)ccc21 [Compound 4-5]	< 4.70	< 4.70	< 4.70		5.30 to 6.00			
CCCn1c2ccc(C(C)=O)cc2c2c(F)cccc21 [Compound 5-1, 1-(5-Fluoro-9-propyl-9H-carbazol-3-yl)-ethanone]	< 4.70	< 4.70	< 4.70		> 6.00			
CCCn1c2ccc(C(C)=O)cc2c2ccc(F)cc21 [Compound 5-2]	< 4.70	< 4.70	< 4.70		4.70 to 5.30			
CC(=O)c1ccc2c(c1)c1c(C(N)=O)cccc1n2CCCF [Compound 5-8]	< 4.70	< 4.70	< 4.70		> 6.00			
CCCn1c2ccccc2c2cc(C(C)=O)cnc21 [Compound 5-10]	< 4.70	< 4.70	< 4.70		> 6.00			
CCOC(=O)c1cnc2c(c1)c1ccccc1n2CCCF [Compound 5-11, 9-(3-fluoropropyl)-9H-pyrido[2,3-b]indole-3-carboxylic acid ethyl ester]	< 4.70	< 4.70	< 4.70		5.30 to 6.00			
CCCn1c2ccc(C(C)=O)cc2c2ncccc21 [Compound 5-13]	< 4.70	< 4.70	< 4.70		5.30 to 6.00			
CCCn1c2ccc(C(C)=O)cc2c2c(OC)cccc21 [Compound 6-1, 1-(5-Methoxy-9-propyl-9H-carbazol-3-yl)-ethanone]	< 4.70	< 4.70	< 4.70		> 6.00			
CNC(=O)c1cccc2c1c1cc(C(C)=O)ccc1n2CCCF [Compound 6-4]	< 4.70	< 4.70	< 4.70		4.70 to 5.30			
NC(=O)c1cnc2c(c1)c1ccccc1n2CCCF [Compound 7-1, 9-(3-Fluoropropyl)-9H-pyrido[2,3-b]indole-3-carboxamide]	< 4.70	< 4.70	< 4.70		5.30 to 6.00			
CCCn1c2ccccc2c2cc(-c3nnco3)ccc21 [Compound 8-1, 3-[1,3,4]Oxadiazol-2-yl-9-propyl-9H-carbazole]	< 4.70	< 4.70	< 4.70		> 6.00			
CCCn1c2ccccc2c2cc(-c3nncs3)ccc21 [Compound 8-3]	< 4.70	< 4.70	< 4.70		< 4.70			
FCCCn1c2ccccc2c2cc(-c3nnco3)cnc21 [Compound 8-4]	< 4.70	< 4.70	< 4.70		> 6.00			

SMILES	pIC50 (PC3)	pIC50 (MDA-MB-231; Homo sapiens)	pIC50 (Hela; Homo sapiens, HeLa)	pIC50 (CWR22R; Homo sapiens, 22Rv1, read-out: IC50 for inhibition of growth, CWR22R)	pIC50 (CWR22R; [1])	pIC50 (CWR22R; [2])	pIC50 (MDA-MB-231)	pIC50 (Hela; Hela)
FCCCn1c2ccccc2c2cc(-c3nnco3)ccc21 [Compound 9-1, 9-(3-Fluoropropyl)-3-[1,3,4]oxadiazol-2-yl-carbazole]	< 4.70	< 4.70	< 4.70		> 6.00			
FCCCn1c2ccc(-c3nnco3)cc2c2ncccc21 [Compound 10-1, 5-(3-Fluoropropyl)-8-[1,3,4]oxadiazol-2-yl-5H-pyrido[3,2-b]indole]		< 4.70	< 4.70			< 4.70		
FCCCn1c2ccc(-c3nnco3)cc2c2ncccc21 [Compound 10-2]						4.70 to 5.30	< 4.70	< 4.70
FCCCn1c2ccccc2c2cc(-c3cnco3)ccc21 [Compound 11-1, 9-(3-Fluoropropyl)-3-oxazol-5-yl-9H-carbazole]	< 4.70	< 4.70	< 4.70		> 6.00			
CCCn1c2ccccc2c2cc(-c3cnco3)ccc21 [Compound 11-2]	< 4.70	< 4.70	< 4.70		> 6.00			
CCCn1c2ccccc2c2cc(-c3cocn3)ccc21 [Compound 12-1, 3-Oxazol-4-yl-9-propyl-9H-carbazole]	< 4.70	< 4.70	< 4.70		< 4.70			
CCCn1c2ccccc2c2cc(-c3ccno3)ccc21 [Compound 13-1, 3-Isoxazol-5-yl-9-propyl-9H-carbazole]	< 4.70	< 4.70	< 4.70		5.30 to 6.00			
FCCCn1c2ccccc2c2cc(-c3ccno3)ccc21 [Compound 13-2]	< 4.70	< 4.70	< 4.70		> 6.00			
FCCCn1c2ccccc2c2cc(-n3cncn3)ccc21 [Compound 14-1, 9-(3-Fluoropropyl)-3-[1,2,4]triazol-1-yl-9H-carbazole]	< 4.70	< 4.70	< 4.70		> 6.00			
CCCn1c2ccccc2c2cc(C3=NCCO3)ccc21 [Compound 15-2]	< 4.70	< 4.70	< 4.70		< 4.70			
CC(=O)c1cc2c3ccccc3n(CCCF)c2cn1 [Compound 17-1, 1-[9-(3-Fluoropropyl)-9H-beta-carbolin-3-yl]-ethanone]	< 4.70	< 4.70	< 4.70		> 6.00			
CCCn1c2ccccc2c2cc(C(C)=O)ncc21 [Compound 17-3]	< 4.70	< 4.70	< 4.70		4.70 to 5.30			
CC(=O)c1ccc2c(c1)c1ccccc1n2CCC(F)F [Compound 18-2, 1-[9-(3,3-Difluoropropyl)-9H-carbazol-3-yl]-ethanone]	< 4.70	< 4.70	< 4.70		> 6.00			
CCCn1c2ccc(C(C)=O)cc2c2c(C(N)=O)cccc21 [Compound 19-1, 6-Acetyl-9-propyl-9H-carbazole-4-carboxamide]	< 4.70	< 4.70	< 4.70		5.30 to 6.00			
N#Cc1ccc2c(c1)c1c(C(N)=O)cccc1n2CCCF [Compound 19-2]	< 4.70	< 4.70	< 4.70		> 6.00			
CCCn1c2ccc(Br)cc2c2cc(C(C)=O)ccc21 [Compound 20-1, 1-(6-Bromo-9-propyl-9H-carbazol-3-yl)-ethanone]	< 4.70	< 4.70	< 4.70		4.70 to 5.30			
CCCn1c2ccc(Cl)cc2c2cc(C(C)=O)ccc21 [Compound 20-2]	< 4.70	< 4.70	< 4.70		< 4.70			
CCCn1c2ccc(OC)cc2c2cc(C(C)=O)ccc21 [Compound 21-1, 1-(6-Methoxy-9-propyl-9H-carbazol-3-yl)-ethanone]	< 4.70	< 4.70	< 4.70		4.70 to 5.30			
CCCn1c2ccccc2c2cc(C#N)ccc21 [Compound 22-2]	< 4.70	< 4.70	< 4.70		> 6.00			
CCCn1c2ccc(C(C)=O)cc2c2cc(C(N)=O)ccc21 [Compound 23-1, 6-Acetyl-9-propyl-9H-carbazole-3-carboxylic acid amide]	< 4.70	4.70 to 5.30	< 4.70		4.70 to 5.30			
CCCn1c2ccc(C(C)=O)cc2c2c(C#N)cccc21 [Compound 25-1, 6-Acetyl-9-propyl-9H-carbazole-4-carbonitrile]	< 4.70	< 4.70	< 4.70		5.30 to 6.00			
N#Cc1cnc2c(c1)c1ccccc1n2CCCF [Compound 25-3]	< 4.70	< 4.70	< 4.70		5.30 to 6.00			
